Numbered stars: 1 amine (or outer) side, 2 acyl side, 3 side chain; on linkers, the order of the positions; unused ones are H or OH. Peptide text beside a SMILES is read from it. * marks the point of attachment. X1 = Brc1ccc2c(c1)-c1cc(N*)ccc1C2; Suc = O=C(CCC(=O)[*:2])[*:1]
Key:
Type in all cases: in vivo
Myzus persicae [1] = experiment: Topical application by spraying, air brush; conditions: 750 μl, 1×10^−5M of each peptide in Tween 24 0.1%, counted 48 hours post spray
Description: (§1) Aphids were exposed to test peptides in the absence of additional external stress conditions.
(§2) Brassica rapa (Chinese cabbage; Wong Bok) were infested with 30 adult Myzus persicae aphids per plant. Aphids were left at least 2 hours to settle and begin feeding from the host plant.
Spraying took place inside an externally vented fume cupboard. […] To ensure spray tracking, all sprayed solutions had amaranth dye added, allowing the full surface of the plant to be evenly coated with the aerosolised compound.
The plants to be sprayed were placed inside a plastic disposal bag, inside the fume cupboard. This was used to control the area exposed to the aerosolised liquid, to avoid extensive spraying and cleaning inside the fume cupboard. The bag was further lined with absorbent paper towel to again help contain and control spray.
Each experiment had three controls:
i) no vehicle or peptide air spray only, negative control to assess effect of spraying on aphid ability to remain attached to the plant; ii) vehicle spray only (Tween 24 0.1%); and iii) Imidacloprid positive control (28.3 μM).
Imidacloprid was always applied last to prevent any possibility of stray pesticide being left inside the disposal bag and contaminating a test peptide applied plant.
Spray volumes for all solutions for this experiment 750 μl.
A clean air brush (ABEST AC06k30) was loaded with 750 μl of peptide solution diluted in […] 0.1% vehicle. For this experiment there were three test conditions: 1895 alone (1×10^−5M); 2129 alone (1×10^−5M); and a simultaneous co-application of 1895+2129 together (1×10^−5M of each peptide). During application, the air brush was held within the plastic bag and the compressor turned on. The air brush was then gently sprayed back and forth across the plant. […]
Post peptide application, each condition was placed into its own individual Bugdorm (Watkins and Doncaster, 44545), to prevent repulsed or displaced aphids moving from one condition to another. Numbers of alive and dead aphids on the plant were counted 48 hours post spray, and the presence of any fresh nymphs noted. […]

Myzus persicae [2] = experiment: Topical application by spraying, Potter Spray Tower; conditions: 3000 μl, 1×10^−5M of each peptide in ATPlus 0.1%, counted 48 hours post spray
Description: as §1, §2
Spraying took place inside a designated spray room. To ensure spray tracking, all sprayed solutions had amaranth dye added.
Potter Spray Tower (Burkard Manufacturing) was ‘primed’ by spraying 1000 μl of liquid coating the inside of the tower. Two controls were used:
i) vehicle spray only (Croda ATPlus UEP 100 LQ-(CQ) 0.1% v/v); and ii) Imidacloprid positive control (28.3 μM).
Imidacloprid was always applied last and via a second, separate, Potter Tower, to prevent any possibility of stray pesticide being left inside the tower and contaminating a test peptide-applied plant.
Spray volumes for all solutions were 3000 μl. The 6.9 mm spray head was loaded with 3000 μl of a 1×10^−5M peptide solution diluted in ATPlus 0.1%. After spraying was completed the plant was allowed to rest on the spray platform for 30 seconds to allow settling of the sprayed chemical.
For this experiment there were three test conditions: 1895 alone (1×10^−5M); 2129 alone (1×10^−5M); and a simultaneous co-application of 1895+2129 together (1×10^−5M of each peptide).
Post peptide application, each condition was placed into its own individual Bugdorm (Watkins and Doncaster, 44545), to prevent repulsed or displaced aphids moving from one condition to another. Numbers of alive and dead aphids on the plant were counted 48 hours post spray, and the presence of any fresh nymphs noted. Plants were watered prior to spraying but not afterwards to eliminate the possibility of drowning any aphids present or washing off the sprayed liquid.
Post spraying, the spray head was filled with over 3000 μl of 70% ethanol and sprayed until empty. The spray head was carefully removed and rinsed with 70% ethanol as some amaranth dye was observed on the spray head. […]

Myzus persicae [3] = experiment: Feeding of aphids with peptides in artificial diet; life span and fecundity; conditions: M. persicae on artificial diet containing the peptide; mean ± SE
Description: A standard artificial diet for M. persicae was produced as described in Van Emden (2009) and provided the basal diet to which neuropeptide analogues were added for screening purposes. Neuropeptide analogues were diluted individually in the artificial diet to a pre-determined recommended concentration as follows: 1895 (3.5×10^-5 M) and 2019 (2.0×10^-5 M). Feeding apparatus were constructed using a set-up developed by […] et al (2009). For this, a piece of Parafilm was stretched over a Plexiglas ring (h=4 cm, Ø=3 cm) and 100 μl of the artificial diet containing the desired neuropeptide analogue was pipette onto the Parafilm membrane. A second piece of Parafilm, stretched to 4 times the original thickness, was stretched over the original layer, sandwiching the artificial diet between two layers of Parafilm. A strip of Parafilm was wrapped around the circumference of the Plexiglas ring, sealing in the diet. A plastic ring (h=1.2 cm, Ø=3.4 cm) was subsequently placed over the Parafilm layer, creating a walled chamber in which to house test aphids in contact with the Parafilm layer containing the artificial diet. Finally, a small Petri dish (h=1 cm, Ø=3.6 cm), modified for ventilation with net cloth, was placed on top of each feeding apparatus to prevent aphid escape. To obtain aphids for use in experiments, reproducing anholocyclic adults were placed on individual excised leaves of Chinese cabbage at densities of 5 adults per leaf and allowed to reproduce for 24 h. The stem of each excised leaf was held within a 0.5 mL Eppendorf tube containing water via a punctured hole in the Eppendorf lid, and placed individually within a microcage (L=4 cm, Ø=9.5 cm). Following 24 h, adults were removed and resultant first instar nymphs (<1 day old and synchronised in age to within 24 h) retained. Nymphs were allowed to develop on the Chinese cabbage for 5 days. On day 5, (3rd instar) nymphs were transferred onto the artificial diet containing a neuropeptide analogue at densities of 1 per feeding chamber and monitored daily until death. Aphids were transferred to fresh artificial diet (containing neuropeptide analogue) every 5 days. Life history traits recorded include age at first reproduction, number of nymphs produced per 24 h period, and lifespan. From these parameters, lifetime fecundity and daily fecundity were calculated. Control groups were set up involving aphids reared on the host plant, an artificial diet without a neuropeptide analogue, and an artificial diet containing the native CAPA neuropeptide.

Compound | % Lethality (Myzus persicae [1]) [%] | % Lethality (Myzus persicae [2]) [%] | Age at 1st reproduction (Myzus persicae [3]) [days] | Ave. daily fecundity (Myzus persicae [3]) [nymphs] | Days as reproducing adult (Myzus persicae [3]) | Life span (Myzus persicae [3]) [days] | Lifetime fecundity (Myzus persicae [3]) [nymphs]
2Abf-Suc-FGPRL-NH2 [compound 1895] | 27 | 34 | 11.5 ± 0.5 | 1.1±0.1 | 5.8 ± 1.8 | 19.8 ± 2.5 | 6.4±2.0
CC[C@H](C)[C@H](NC(=O)[C@H](CCCNC(=N)N)NC(=O)[C@@H]1CCCN1C(=O)[C@@H](NC(=O)[C@H](C)NC(=O)CCC(=O)Nc1ccc2c(c1)-c1cc(Br)ccc1C2)[C@@H](C)O)C(N)=O [compound 2129, 2Abf-Suc-ATPRI-NH2] ({X1-Suc}-ATPRI-NH2) | 30 | 32 | 12.4 ± 0.7 | 1.2±0.1 | 7.17 ± 1.5 | 21.0 ± 2.3 | 8.8 ± 2.0
